Values quoted from earlier work as cited in patent publication US20030166007A1, “Chemical proteomics” (MDS Proteomics Inc., priority 2002, published 2003).

Tests used:
[1] = molecular target: T1, muscle glycogen phosphorylase b (Homo sapiens, UniProt P11217); conditions: cited from earlier work
T1 sequence (P11217 1-842): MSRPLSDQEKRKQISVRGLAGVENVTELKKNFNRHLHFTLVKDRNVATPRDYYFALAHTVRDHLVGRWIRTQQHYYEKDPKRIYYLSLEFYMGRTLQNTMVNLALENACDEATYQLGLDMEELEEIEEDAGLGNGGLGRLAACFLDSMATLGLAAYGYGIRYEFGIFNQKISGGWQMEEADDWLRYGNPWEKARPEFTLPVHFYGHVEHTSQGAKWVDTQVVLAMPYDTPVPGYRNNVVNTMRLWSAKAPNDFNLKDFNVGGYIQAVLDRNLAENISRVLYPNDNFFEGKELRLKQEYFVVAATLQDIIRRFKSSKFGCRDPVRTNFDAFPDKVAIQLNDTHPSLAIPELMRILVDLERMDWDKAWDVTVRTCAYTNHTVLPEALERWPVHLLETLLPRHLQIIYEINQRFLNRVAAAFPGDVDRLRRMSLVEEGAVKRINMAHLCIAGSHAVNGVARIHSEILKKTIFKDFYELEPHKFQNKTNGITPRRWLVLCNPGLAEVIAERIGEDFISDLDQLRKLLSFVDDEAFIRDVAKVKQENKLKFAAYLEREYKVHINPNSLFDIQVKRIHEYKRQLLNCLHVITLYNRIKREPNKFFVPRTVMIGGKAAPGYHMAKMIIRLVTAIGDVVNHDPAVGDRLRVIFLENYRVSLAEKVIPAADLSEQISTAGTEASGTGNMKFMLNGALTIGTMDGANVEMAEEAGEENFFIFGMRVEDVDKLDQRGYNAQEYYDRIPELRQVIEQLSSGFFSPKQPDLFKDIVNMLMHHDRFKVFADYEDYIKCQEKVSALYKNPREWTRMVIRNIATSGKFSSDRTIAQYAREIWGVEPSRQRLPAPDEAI

[2] = molecular target: Amido phosphoribosyltransferase (Homo sapiens, UniProt Q06203); conditions: in vitro assays; cited from earlier work
Sequence of Amido phosphoribosyltransferase (Q06203 12-517, species assumed): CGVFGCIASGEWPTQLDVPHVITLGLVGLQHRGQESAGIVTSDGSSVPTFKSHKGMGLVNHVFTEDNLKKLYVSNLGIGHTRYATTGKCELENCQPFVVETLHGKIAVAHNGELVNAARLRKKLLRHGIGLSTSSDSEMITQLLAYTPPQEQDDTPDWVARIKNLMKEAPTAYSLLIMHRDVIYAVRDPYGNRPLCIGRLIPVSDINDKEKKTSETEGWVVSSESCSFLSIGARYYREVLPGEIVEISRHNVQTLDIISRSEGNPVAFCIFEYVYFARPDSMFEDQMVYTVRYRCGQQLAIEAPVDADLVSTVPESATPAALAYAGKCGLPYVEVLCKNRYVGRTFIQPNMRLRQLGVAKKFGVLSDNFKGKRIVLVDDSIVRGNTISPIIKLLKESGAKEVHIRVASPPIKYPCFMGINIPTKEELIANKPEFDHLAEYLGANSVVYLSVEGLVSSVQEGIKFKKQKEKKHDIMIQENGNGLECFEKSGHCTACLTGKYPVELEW

SMILES | inhibition of muscle glycogen phosphorylase b [1] | inhibition of amido-phosphoribosyltransferase [2]
CN(Cc1cnc2nc(N)nc(N)c2n1)c1ccc(C(=O)NC(CCC(=O)O)C(=O)O)cc1Cl (stereo not drawn) [3′-chloroMethotrexate] | reversible inhibitors | 
CN(Cc1cnc2nc(N)nc(N)c2n1)c1c(Cl)cc(C(=O)N[C@@H](CCC(=O)O)C(=O)O)cc1Cl [3′,5′-dichloroMethotrexate] | reversible inhibitors | 
CN(Cc1cnc2nc(N)nc(N)c2n1)c1ccc(C(=O)N[C@@H](CCC(=O)N[C@@H](CCC(=O)N[C@@H](CCC(=O)N[C@@H](CCC(=O)N[C@@H](CCC(=O)O)C(=O)O)C(=O)O)C(=O)O)C(=O)O)C(=O)O)cc1 [MTX-Glu5] |  | inhibited
